Source: patent US6689814B1, “Use of dialkyldialkylammonium halide for the preparation of a virucidal medicament intended to be administered by the systemic route” (priority 1998, dated 2004)
Where “and” joins values, the source holds several entries; their conditions need not be identical. Equal values may be shown once.

Key:
[1] = test system: Herpesvirus simplex; test: Example 3: protocol of Example 2 with two batches of 52 animals; assay type: in vivo, mice
Method: (§1) A test similar to the one described in Example 1 was carried out using two groups of 17 mice, one Herpesvirus simplex batch having a titer of 2×10^2 PFU/ml, by inoculating a Bardac® dose of 0.018 mg by injection (that is to say a daily-dose of 0.036 mg) and following the protocol below: on day D0, Bardac® is injected and, 12 hours later, nasal instillation of the virus is carried out, followed by intraperitoneal injections of Bardac® every twelve hours. Monitoring was carried out twice per day for six days.
(§2) At the end of the monitoring period, the lungs of the animals in the two groups were collected for culturing, in order to detect the presence of the virus. Detection of the virus is carried out as follows: the lung is homogenized in a DOUNCE® mixer and then suspended in a sterile test tube and centrifuged for 10 minutes at 2000 rpm. If the sample is not analyzed immediately, it is stored at −80° C. The infectious titer of the lung is given by titrating the virions present in 0.3 ml of centrifugation supernatant and multiplying the number of PFU by ten.
The protocol followed is identical to that of Example 2 with two batches of 52 animals.

[2] = test system: Herpesvirus simplex; test: Example 1: Herpes simplex nasal infection of Nude mice, Bardac intraperitoneal, 14-day monitoring; assay type: in vivo, nu/nu Nude mice; conditions: 0.025 mg i.p. twice a day
Text: Three-week-old female nu/nu Nude mice, having an average weight of 6 to 8 g, divided into two batches of 20 animals, a control group receiving only the virus (curve -x- in FIG. 1), and one group being treated with Bardac® (curve -●- in FIG. 1).
Herpesvirus simplex batch having a titer of 10′ PFU (Plaque Forming Units)/ml.
Didecyldimethylammonium chloride (Bardac®) provided by the Swiss company Lonza and used in the form of a dilution in an isotonic saline solution.
Inoculation of the virus: 30 μl by the nasal route of pure viral suspension, which corresponds to an installation of about 10^4 PFU (viral load). The inoculation is carried out according to the protocol described by KERN et al. in Antiviral Res., 1986, 6, 189-195. One mouse died during the nasal instillation.
Bardac®: inoculation by the intraperitoneal route, twice a day of a dose of 0.025 mg of the product by injection, i.e. a daily dose of 0.050 mg. According to the manufacturer (LONZA), the LD50 by the intravenous route is about 0.20 mg/10 g of mouse.
On day D0, Bardac® is injected in the morning, and 4 hours later nasal instillation of the virus is carried out, followed 6 hours later by the second injection of Bardac®; on the following days, the injections were carried out around 9 am and 5 pm.

[3] = test system: Herpesvirus simplex; test: Example 2: Herpes simplex nasal infection of mice, Bardac intraperitoneal, 6-day monitoring and lung infectious titer; assay type: in vivo
Method: as §1, §2

[4] = mouse, according to the manufacturer (LONZA); cited from earlier work

## CCCCCCCCCC[N+](C)(C)CCCCCCCCCC.[Cl-] [Bardac®, didecyldimethylammonium chloride]
[1]; mouse alive at D6
  infectious titer in the lung, individual infected treated mouse: > 1000 PFU (2×) and 20 PFU (2×) and 120 PFU and 250 PFU and 80 PFU
[1]; mouse dead at D3
  infectious titer in the lung, individual infected treated mouse: > 1000 PFU and 50 PFU
[1]; mouse dead at D5
  infectious titer in the lung, individual infected treated mouse: 300 PFU and 160 PFU and 50 PFU and 40 PFU
[1]; sum over the 13 infected treated mice, control >11930
  total infectious titer: >4100 PFU
[1]; treated animals versus control group, overall
  factor by which the infectious titer (in PFU) is reduced: 3
[1]; treated group of 52 mice, control 22
  number of live mice on the sixth day: 39
[1]; treated group of 52 mice, control 37
  number of mice infected with the virus: 13
[1]; treated group of 52 mice, control 42%
  percentage of survivors on the sixth day: 75%
[1]; treated group of 52 mice, control 71%
  percentage of mice infected with the virus: 25%
[2]; treated group of 20 mice, about 10^4 PFU nasal, 14 days monitoring, control 10%
  percentage of survivals: 45%
[2]; treated group, control 8.5 days
  average duration of the disease: 9.2 days
[3]; mouse alive at D6
  infectious titer in the lung, individual treated mouse: 0 PFU (7×) and 20 PFU (2×) and 100 PFU
[3]; mouse dead at D5
  infectious titer in the lung, individual treated mouse: 0 PFU
[3]; mouse dead at D6
  infectious titer in the lung, individual treated mouse: 0 PFU (2×) and 20 PFU and 150 PFU and 50 PFU and 200 PFU
[3]; sum over the 17 treated mice, control >3200
  total infectious titer in the lungs: 560 PFU
[3]; treated group of 17 mice, 0.018 mg i.p. every twelve hours, control 29%
  percentage of survivals on day D6: 59%
[3]; treated group of 17 mice, 0.018 mg i.p. every twelve hours, control five
  mice alive on day D6: ten
[3]; treated group of 17 mice, control 15
  number of infected mice: 7
[3]; treated group of 17 mice, control 88%
  percentage of mice infected: 41%
[3]; treated group versus control group
  effect on mortality and infectious titer (in words): less affected by the virus
[4]
  LD50 by the intravenous route: about 0.20 mg/10 g of mouse
